Results as given in patent publication US5650428A, “Arylsulfonamide derivative and pharmaceutical compositions and use thereof” (NKK Corporation, priority 1993, dated 1997).
Structures can show the parent of a compound that is named as a salt.

How the values were obtained:
rat platelet = test: Inhibitory activity of aggregation in rat platelet; type: cell-based; details: rat platelet rich plasma, arachidonic acid (final concentration 0.5 mM) as inducer; read-out: C: Inhibitory activity of aggregation in rat platelet (IC50; μM)
Procedure: (3) Inhibitory Activity of Aggregation in Rat Platelet The abdomen of etherized rat was open, and blood was taken from the abdominal arteries, using a sodium citrate solution (final concentration was 0.38%). The blood was centrifuged at 1100 rpm for 10 minutes, and the supernatent was separated as the platelet rich plasma. The plasma was further centrifuged at 2000 rpm for 15 minutes to obtain the supernatent as a platelet poor plasma. The platelet rich plasma (280 μl) was placed in a measuring cuvette and preincubated for 1 minute at 37° C. Then, a sample solution (10 μl) was added. After 2 minutes, an arachidonic acid solution (final concentration=0.5 mM) (10 μl) was added as an inducer. The change in light transmission was recorded for 5 minutes.

[1] = target: T1, thromboxane A2 (TxA2) receptor (Cavia porcellus, UniProt A0A286Y4I8); test: TxA2 antagonist action by binding assay; details: washed guinea pig platelets, 1 nM [3H]-SQ29,548, 45 minutes at 25° C.
T1 construct: to obtain washed platelets; from tissue; host or cells: washed platelets of male Hartley guinea pigs
T1 sequence (A0A286Y4I8 1-347): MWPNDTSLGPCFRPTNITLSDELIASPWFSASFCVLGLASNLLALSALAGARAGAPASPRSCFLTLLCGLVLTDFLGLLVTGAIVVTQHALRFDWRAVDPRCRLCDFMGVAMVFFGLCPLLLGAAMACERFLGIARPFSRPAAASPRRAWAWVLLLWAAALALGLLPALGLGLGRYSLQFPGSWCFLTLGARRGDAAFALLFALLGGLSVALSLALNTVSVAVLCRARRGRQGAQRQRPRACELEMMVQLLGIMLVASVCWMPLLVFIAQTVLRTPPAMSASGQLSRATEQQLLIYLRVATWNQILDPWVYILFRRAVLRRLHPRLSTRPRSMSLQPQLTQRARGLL
Procedure: (1) TxA2 antagonist action by binding assay Guinea pigs (Hartley; male; body weight=approximately 500 g) were anesthetized with ether, and the blood was collected into sodium citrate (final concentration=0.38%). The preparation of platelets was carried out at room temperature. The platelet rich plasma was obtained by centrifugation at 980 rpm for 10 minutes. One tenth (1/10) amount of 77 mM-EDTA-Na (pH 7.4) was added to the platelet rich plasma, and the mixture was centrifuged for 10 minutes at 3000 rpm. The suspension was again centrifuged at 3000 rpm for 10 minutes. The precipitate was further resuspended in a suspension buffer (2) shown in Table 2 to obtain washed platelets. The number of platelets was counted by an automatic blood cell counter (Sysmex Microcellcounter F-800) and the sample was diluted with the suspension buffer to 4×10^8 cells/ml. The platelets, sample solution and labeled compounds were placed into plastic tubes in amounts (volumes) shown in the following Table 3, incubated for 45 minutes at 25° C., and then the mixture was filtered using a cell harvester (Brandel cell harvester M-24R) by a glass fiber filter (Whatman GF/B). After the filter was sufficiently dried, the scintillation was counted by a scintillation counter (Beckman LS5000TD). IC50 was calculated from (binding)/(control binding) ratio in the presence of an antagonist. [table 3: the next 10 blocks are its lines as printed, fixed-width]

Row | Compound | IC50 (rat platelet) | IC50 [1]
1 | Cc1ccc(S(=O)(=O)NC(COC2CCCCO2)C(=O)Nc2ccc(CC(=O)O)cc2)cc1 (racemic) [Example 56, (RS)-N-(4-(carboxymethyl)phenyl)-2-(4-methylbenzenesulfonylamino)-3-(tetrahydropyran-2-yloxy)propanamide] | 1.7 µM | 0.3 µM
2 | COc1ccc(S(=O)(=O)NC(COC2CCCCO2)C(=O)Nc2ccc(CC(=O)O)cc2)cc1 (racemic) [Example 57, (RS)-N-(4-(carboxymethyl)phenyl)-2-(4-methoxybenzenesulfonylamino)-3-(tetrahydropyran-2-yloxy)propanamide] | 0.53 µM | 0.15 µM
3 | O=C(O)Cc1ccc(NC(=O)C(COC2CCCCO2)NS(=O)(=O)c2ccc(Cl)c([N+](=O)[O-])c2)cc1 (racemic) [Example 58, (RS)-N-(4-(carboxymethyl)phenyl)-2-(4-chloro-3-nitrobenzenesulfonylamino)-3-(tetrahydropyran-2-yloxy)propanamide] | 5.3 µM | 1.4 µM
4 | O=C(O)Cc1ccc(NC(=O)C(COC2CCCCO2)NS(=O)(=O)c2ccc3ccccc3c2)cc1 (racemic) [Example 60, (RS)-N-(4-(carboxymethyl)phenyl)-N-(4-(carboxymethyl)phenyl)-2-(2-naphthalenesulfonylamino)-3-(tetrahydropyran-2-yloxy)propanamide] | 5.3 µM | 0.23 µM
5 | O=C(O)Cc1ccc(NC(=O)C(Cn2ccnc2)NS(=O)(=O)c2ccc(Cl)cc2)cc1 (racemic) [Example 94, (RS)-N-(4-(carboxymethyl)phenyl)-2-(4-chlorobenzenesulfonylamino)-3-(1H-imidazol-1-yl)propanamide hydrochloride] | 1.7 µM | 0.86 µM
6 | O=C(O)CCc1ccc(NC(=O)C(Cn2ccnc2)NS(=O)(=O)c2ccc(Cl)cc2)cc1 (racemic) [Example 95, (RS)-N-(4-(2-carboxyethyl)phenyl)-2-(4-chlorobenzenesulfonylamino)-3-(1H-imidazol-1-yl)propanamide hydrochloride] | 1.79 µM | 1.5 µM
7 | O=C(O)CCCCCCNC(=O)C(Cn1ccnc1)NS(=O)(=O)c1ccc(Cl)cc1 (racemic) [Example 101, (RS)-N-(6-carboxyhexyl)-2-(4-chlorobenzenesulfonylamino)-3-(1H-imidazol-1-yl)propanamide hydrochloride] | 1.7 µM | 0.41 µM
8 | O=C(O)Cc1ccc(NC(=O)C(Cn2ccnc2)NS(=O)(=O)c2ccc(F)cc2)cc1 (racemic) [Example 103, (RS)-N-(4-(carboxymethyl)phenyl)-2-(4-fluorobenzenesulfonylamino)-3-(1H-imidazol-1-yl)propanamide] | 1.7 µM | 1.9 µM
9 | O=C(O)Cc1ccc(NC(=O)C(Cn2ccnc2)NS(=O)(=O)c2ccc(Br)cc2)cc1 (racemic) [Example 104, (RS)-2-(4-bromobenzenesulfonylamino)-N-(4-(carboxymethyl)phenyl)-3-(1H-imidazol-1-yl)propanamide] | 1.7 µM | 0.18 µM
10 | O=C(O)Cc1ccc(NC(=O)C(COc2cccnc2)NS(=O)(=O)c2ccc(Cl)cc2)cc1 (racemic) [Example 116, (RS)-N-(4-(carboxymethyl)phenyl)-2-(4-chlorobenzenesulfonylamino)-3-(pyridin-3-yloxy)propanamide hydrochloride] | 0.95 µM | 0.5 µM
11 | O=C(O)Cc1ccc(NC(=O)C(COc2cccnc2)NS(=O)(=O)c2ccc(F)cc2)cc1 (racemic) [Example 123, (RS)-N-(4-(carboxymethyl)phenyl)-2-(4-fluorobenzenesulfonylamino)-3-(pyridin-3-yloxy)propanamide] | 0.31 µM | 2 µM
12 | O=C(O)Cc1ccc(NC(=O)C(COc2cccnc2)NS(=O)(=O)c2ccc(Br)cc2)cc1 (racemic) [Example 124, (RS)-2-(4-bromobenzenesulfonylamino)-N-(4-(carboxymethyl)phenyl)-3-(pyridin-3-yloxy)propanamide] | 0.31 µM | 0.13 µM
13 | O=C(O)Cc1ccc(NC(=O)C(COc2ccccc2)NS(=O)(=O)c2ccc(Cl)cc2)cc1 (racemic) [Example 129, (RS)-N-(4-(carboxymethyl)phenyl)-2-(4-chlorobenzenesulfonylamino)-3-phenoxypropanamide] | 0.54 µM | 0.72 µM
14 | O=C(O)Cc1ccc(NC(=O)C(COc2ccc(Cl)cc2)NS(=O)(=O)c2ccc(Cl)cc2)cc1 (racemic) [Example 130, (RS)-N-(4-(carboxymethyl)phenyl)-2-(4-chlorobenzenesulfonylamino)-3-(4-chlorophenoxy)propanamide] | 1.7 µM | 0.16 µM
15 | O=C(O)Cc1ccc(NC(=O)C(COc2cccc(Cl)c2)NS(=O)(=O)c2ccc(Cl)cc2)cc1 (racemic) [Example 131, (RS)-N-(4-(carboxymethyl)phenyl)-2-(4-chlorobenzenesulfonylamino)-3-(3-chlorophenoxy)propanamide] | 1.7 µM | 0.047 µM
16 | O=C(O)Cc1ccc(NC(=O)C(COc2ccccc2Cl)NS(=O)(=O)c2ccc(Cl)cc2)cc1 (racemic) [Example 132, (RS)-N-(4-(carboxymethyl)phenyl)-2-(4-chlorobenzenesulfonylamino)-3-(2-chlorophenoxy)propanamide] | 1.7 µM | 0.023 µM
17 | O=C(O)Cc1ccc(NC(=O)C(COc2ccccc2)NS(=O)(=O)c2ccc(F)cc2)cc1 (racemic) [Example 136, (RS)-N-(4-(carboxymethyl)phenyl)-2-(4-fluorobenzenesulfonylamino)-3-phenoxypropanamide] | 0.55 µM | 0.15 µM
18 | O=C(O)Cc1ccc(NC(=O)C(COc2ccc(Cl)cc2)NS(=O)(=O)c2ccc(F)cc2)cc1 (racemic) [Example 137, (RS)-N-(4-(carboxymethyl)phenyl)-3-(4-chlorophenoxy)-2-(4-fluorobenzenesulfonylamino)propanamide] | 1.7 µM | 0.1 µM
19 | O=C(O)Cc1ccc(NC(=O)C(COc2cccc(Cl)c2)NS(=O)(=O)c2ccc(F)cc2)cc1 (racemic) [Example 138, (RS)-N-(4-(carboxymethyl)phenyl)-3-(3-chlorophenoxy)-2-(4-fluorobenzenesulfonylamino)propanamide] | 0.53 µM | 0.1 µM
20 | O=C(O)Cc1ccc(NC(=O)C(COc2ccccc2)NS(=O)(=O)c2ccc(Br)cc2)cc1 (racemic) [Example 142, (RS)-2-(4-bromobenzenesulfonylamino)-N-(4-(carboxymethyl)phenyl)-3-phenoxypropanamide] | 0.53 µM | 0.024 µM
21 | O=C(O)Cc1ccc(NC(=O)C(COc2ccc(Cl)cc2)NS(=O)(=O)c2ccc(Br)cc2)cc1 (racemic) [Example 143, (RS)-2-(4-bromobenzenesulfonylamino)-N-(4-(carboxymethyl)phenyl)-3-(4-chlorophenoxy) propanamide] | 1.7 µM | 0.037 µM
22 | O=C(O)Cc1ccc(NC(=O)C(COc2cccc(Cl)c2)NS(=O)(=O)c2ccc(Br)cc2)cc1 (racemic) [Example 144, (RS)-2-(4-bromobenzenesulfonylamino)-N-(4-(carboxymethyl)phenyl)-3-(3-chlorophenoxy) propanamide] | 0.53 µM | 0.051 µM
23 | O=C(O)Cc1ccc(NC(=O)C(COc2ccccc2)NS(=O)(=O)c2ccc(I)cc2)cc1 (racemic) [Example 149, (RS)-N-(4-(carboxymethyl)phenyl)-2-(4-iodobenzenesulfonylamino)-3-phenoxypropanamide] | 0.17 µM | 0.017 µM
24 | O=C(O)Cc1ccc(NC(=O)C(COc2ccc(Cl)cc2)NS(=O)(=O)c2ccc(I)cc2)cc1 (racemic) [Example 150, (RS)-N-(4-(carboxymethyl)phenyl)-3-(4-chlorophenoxy)-2-(4-iodobenzenesulfonylamino)propanamide] | 5.4 µM | 0.019 µM
25 | O=C(O)Cc1ccc(NC(=O)C(COc2cccc(Cl)c2)NS(=O)(=O)c2ccc(I)cc2)cc1 (racemic) [Example 151, (RS)-N-(4-(carboxymethyl)phenyl)-3-(3-chlorophenoxy)-2-(4-iodobenzenesulfonylamino) propanamide] | 1.7 µM | 0.019 µM
